Source: patent US20250230193A1, “CYCLIC COMPOUND HAVING SELECTIVE KRAS INHIBITORY EFFECT ON HRAS AND NRAS” (CHUGAI SEIYAKU KABUSHIKI KAISHA, priority 2022, published 2025)
*1 amine or outer side, *2 acyl side, *3 side chain or, on linkers, in order; H or OH if unused. Where a SMILES comes first, the peptide text is derived from it. Bridges are numbered along the chain shown (N, C = ends). [ ]: non-standard residue; d: D form. The star is where a group is joined. hPhe(3-Cl-4-CF3) = N[C@@H](CCc1ccc(C(F)(F)F)c(Cl)c1)C(=O)O; NPrPhe(4-CF3) = CCCN[C@@H](Cc1ccc(C(F)(F)F)cc1)C(=O)O; X22 = CCCN([C@@H](COC1CCC1)C(=O)[*:2])[*:1]; X4 = CCCN([C@@H](COCCC(C)C)C(=O)[*:2])[*:1]; X33 = CCCN([C@@H](CC(C)C)C(=O)[*:2])[*:1]; NMeGly(cPent) = CN[C@H](C(=O)O)C1CCCC1; NMeD = CN[C@@H](CC(=O)O)C(=O)O; NMeL = CN[C@@H](CC(C)C)C(=O)O; Morpholide = C1CN(*)CCO1; NMeA = CN[C@@H](C)C(=O)O; Aze = O=C(O)[C@@H]1CCN1; Ac4c = NC1(C(=O)O)CCC1; Sar = CNCC(=O)O

Legend:
[1] = molecular target: GDP-bound NRAS wild-type protein (Homo sapiens, UniProt P01111); experiment: Binding to NRAS by surface plasmon resonance (SPR), Single Cycle Kinetics; conditions: KD ratio, GDP-bound NRAS wild-type vs GDP-bound KRAS wild-type, SPR
GDP-bound NRAS wild-type protein, sequence (P01111 whole entry): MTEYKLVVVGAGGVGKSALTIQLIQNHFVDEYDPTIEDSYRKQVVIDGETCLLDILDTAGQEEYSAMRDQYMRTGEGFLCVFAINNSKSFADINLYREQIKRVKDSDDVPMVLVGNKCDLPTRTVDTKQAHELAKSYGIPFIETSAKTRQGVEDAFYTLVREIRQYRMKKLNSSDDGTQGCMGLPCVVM

[2] = molecular target: GDP-bound HRAS wild-type protein (Homo sapiens, UniProt P01112); experiment: Binding to HRAS by surface plasmon resonance (SPR), Single Cycle Kinetics; conditions: KD ratio, GDP-bound HRAS wild-type vs GDP-bound KRAS wild-type, SPR
GDP-bound HRAS wild-type protein, sequence (P01112 whole entry): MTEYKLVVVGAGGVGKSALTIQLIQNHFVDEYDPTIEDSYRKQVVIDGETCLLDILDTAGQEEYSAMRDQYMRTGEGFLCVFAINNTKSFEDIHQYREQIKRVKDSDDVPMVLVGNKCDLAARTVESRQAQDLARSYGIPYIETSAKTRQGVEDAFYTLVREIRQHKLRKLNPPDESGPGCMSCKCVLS

Row | SMILES | NRAS/KRAS (ratio of KD value for NRAS to KD value for KRAS) [1] | HRAS/KRAS (ratio of KD value for HRAS to KD value for KRAS) [2]
1 | CCO[C@@H]1C[C@H]2C(=O)N(C)C3(CCCC3)C(=O)N(C)[C@@H](C3CCCC3)C(=O)N(C)[C@H](C(=O)N(C)C)CC(=O)N(C)[C@@H](CC)C(=O)N[C@@H]([C@@H](C)CC)C(=O)N3CCC[C@H]3C(=O)N(C)[C@H]3C/C=C\CCN(C3=O)[C@@H](Cc3ccc(C)cc3)C(=O)N(C)CC(=O)N[C@@H](CCc3cc(F)c(C(F)(F)F)c(F)c3)C(=O)N2C1 [PP1810] | A (a compound having 10 or more and less than 20 is denoted as A) | B (a compound having 3 or more and less than 10 is denoted as B)
2 | CC[C@H](C)[C@@H]1NC(=O)[C@H](CC)N(C)C(=O)C[C@@H](C(=O)N(C)C)N(C)C(=O)[C@H](C2CCCC2)N(C)C(=O)C2(CCCC2)N(C)C(=O)[C@@H]2CCCN2C(=O)[C@H](CCc2cc(F)c(C(F)(F)F)c(F)c2)NC(=O)CN(C)C(=O)[C@H](Cc2ccc(C)cc2)N2CC/C=C\C[C@@H](C2=O)N(C)C(=O)[C@@H]2CCCN2C1=O [PP1811] | A (a compound having 10 or more and less than 20 is denoted as A) | B (a compound having 3 or more and less than 10 is denoted as B)
3 | CC[C@H](C)[C@@H]1NC(=O)[C@H](CC)N(C)C(=O)C[C@@H](C(=O)N(C)C)N(C)C(=O)[C@H](C2CCCC2)N(C)C(=O)C2(CCCC2)N(C)C(=O)[C@@H]2C[C@@H](C)CN2C(=O)[C@H](CCc2cc(F)c(C(F)(F)F)c(F)c2)NC(=O)CN(C)C(=O)[C@H](Cc2ccc(C)cc2)N2CC/C=C\C[C@@H](C2=O)N(C)C(=O)CN(C)C1=O [PP1812] | A (a compound having 10 or more and less than 20 is denoted as A) | A (a compound having 10 or more and less than 20 is denoted as A)
4 | CC[C@H](C)[C@@H]1NC(=O)[C@H](C2CC2)N(C)C(=O)C[C@@H](C(=O)N(C)C)N(C)C(=O)[C@H](C2CCCC2)N(C)C(=O)C2(CCCC2)N(C)C(=O)[C@@H]2C[C@@H](C)CN2C(=O)[C@H](CCc2cc(F)c(C(F)(F)F)c(F)c2)NC(=O)CN(C)C(=O)[C@H](Cc2ccc(C)cc2)N2CC/C=C\C[C@@H](C2=O)N(C)C(=O)CN(C)C1=O [PP1813] | A (a compound having 10 or more and less than 20 is denoted as A) | B (a compound having 3 or more and less than 10 is denoted as B)
5 | CC[C@H](C)[C@@H]1NC(=O)[C@H](CC)N(C)C(=O)C[C@@H](C(=O)N(C)C)N(C)C(=O)[C@H](C2CCCC2)N(C)C(=O)C2(CCCC2)N(C)C(=O)[C@@H]2C[C@@H](C)CN2C(=O)[C@H](CCc2cc(F)c(C(F)(F)F)c(F)c2)NC(=O)CN(C)C(=O)[C@H](Cc2ccc(C)cc2)N2CC/C=C\C[C@@H](C2=O)N(C)C(=O)[C@@H]2CCCN2C1=O [PP1814] | A (a compound having 10 or more and less than 20 is denoted as A) | A (a compound having 10 or more and less than 20 is denoted as A)
6 | CCCN1C(=O)C[C@@H](C(=O)N2CCOCC2)N(C)C(=O)[C@H](C2CCCC2)N(C)C(=O)C2(CCC2)NC(=O)[C@@H]2CCCN2C(=O)[C@H](CCc2ccc(C(F)(F)F)c(Cl)c2)NC(=O)CN(C)C(=O)[C@H](Cc2ccc(C(F)(F)F)cc2)N(CCC)C(=O)CN(C)C(=O)CN(C)C(=O)[C@H](C(C)C)NC(=O)[C@@H]1CC(C)C [PP1815] ([X33]V[Sar][Sar][NPrPhe(4-CF3)][Sar][hPhe(3-Cl-4-CF3)]P[Ac4c][NMeGly(cPent)][NMeD]-Morpholide; lactam N-11) | B (a compound having 3 or more and less than 10 is denoted as B) | B (a compound having 3 or more and less than 10 is denoted as B)
7 | CCCN1C(=O)CN(C)C(=O)CN(C)C(=O)[C@H]([C@@H](C)CC)NC(=O)[C@H](CC(C)C)N(C)C(=O)C[C@@H](C(=O)N2CCOCC2)N(C)C(=O)[C@H](C2CCCC2)N(C)C(=O)C2(CCC2)NC(=O)[C@@H]2CCCN2C(=O)[C@H](CCc2ccc(C(F)(F)F)c(Cl)c2)NC(=O)CN(C)C(=O)[C@@H]1COC1CCC1 [PP1816] ([NMeL]I[Sar][Sar][X22][Sar][hPhe(3-Cl-4-CF3)]P[Ac4c][NMeGly(cPent)][NMeD]-Morpholide; lactam N-11) | B (a compound having 3 or more and less than 10 is denoted as B) | C (A compound having a KD ratio of 0.1 or more and less than 3 is denoted as C)
8 | CCCN1C(=O)CN(C)C(=O)CN(C)C(=O)[C@H]([C@@H](C)CC)NC(=O)[C@H](CC(C)C)N(C)C(=O)C[C@@H](C(=O)N2CCOCC2)N(C)C(=O)[C@H](C2CCCC2)N(C)C(=O)C2(CCC2)NC(=O)[C@@H]2CCCN2C(=O)[C@H](CCc2ccc(C(F)(F)F)c(Cl)c2)NC(=O)CN(C)C(=O)[C@@H]1COCCC(C)C [PP1817] ([NMeL]I[Sar][Sar][X4][Sar][hPhe(3-Cl-4-CF3)]P[Ac4c][NMeGly(cPent)][NMeD]-Morpholide; lactam N-11) | C (A compound having a KD ratio of 0.1 or more and less than 3 is denoted as C) | C (A compound having a KD ratio of 0.1 or more and less than 3 is denoted as C)
9 | CCCN1C(=O)[C@@H]2CCN2C(=O)[C@H](C)N(C)C(=O)[C@H]([C@@H](C)CC)NC(=O)[C@H](CC(C)C)N(C)C(=O)C[C@@H](C(=O)N2CCOCC2)N(C)C(=O)[C@H](C2CCCC2)N(C)C(=O)C2(CCC2)NC(=O)[C@@H]2CCCN2C(=O)[C@H](CCc2ccc(C(F)(F)F)c(Cl)c2)NC(=O)CN(C)C(=O)[C@@H]1COC1CCC1 [PP1818] ([NMeL]I[NMeA][Aze][X22][Sar][hPhe(3-Cl-4-CF3)]P[Ac4c][NMeGly(cPent)][NMeD]-Morpholide; lactam N-11) | C (A compound having a KD ratio of 0.1 or more and less than 3 is denoted as C) | B (a compound having 3 or more and less than 10 is denoted as B)
10 | CCCN1C(=O)[C@@H]2CCN2C(=O)[C@H](C)N(C)C(=O)[C@H]([C@@H](C)CC)NC(=O)[C@H](CC(C)C)N(C)C(=O)C[C@@H](C(=O)N2CCOCC2)N(C)C(=O)[C@H](C2CCCC2)N(C)C(=O)C2(CCC2)NC(=O)[C@@H]2CCCN2C(=O)[C@H](CCc2ccc(C(F)(F)F)c(Cl)c2)NC(=O)CN(C)C(=O)[C@@H]1COCCC(C)C [PP1819] ([NMeL]I[NMeA][Aze][X4][Sar][hPhe(3-Cl-4-CF3)]P[Ac4c][NMeGly(cPent)][NMeD]-Morpholide; lactam N-11) | C (A compound having a KD ratio of 0.1 or more and less than 3 is denoted as C) | C (A compound having a KD ratio of 0.1 or more and less than 3 is denoted as C)
11 | CCO[C@@H]1C[C@H]2C(=O)NC3(CCC3)C(=O)N(C)[C@@H](C3CCCC3)C(=O)N(C)[C@H](C(=O)N(C)C)CC(=O)N(C)[C@@H](CC)C(=O)N[C@@H]([C@@H](C)CC)C(=O)N(C)CC(=O)N(C)[C@H]3C/C=C\CCN(C3=O)[C@@H](Cc3ccc(C(F)(F)F)cc3)C(=O)N(C)CC(=O)N[C@@H](CCc3cc(C)c(Cl)c(C)c3)C(=O)N2C1 [PP1821] | A (a compound having 10 or more and less than 20 is denoted as A) | A (a compound having 10 or more and less than 20 is denoted as A)
12 | CC[C@H](C)[C@@H]1NC(=O)[C@H](CC)N(C)C(=O)C[C@@H](C(=O)N(C)C)N(C)C(=O)[C@H](C2CCCC2)N(C)C(=O)C2(CCC2)NC(=O)[C@@H]2CCCN2C(=O)[C@H](CCc2cc(C)c(Cl)c(C)c2)NC(=O)CN(C)C(=O)[C@H](Cc2ccc(C(F)(F)F)cc2)N2CC/C=C\C[C@@H](C2=O)N(C)C(=O)CN(C)C1=O [PP1822] | A (a compound having 10 or more and less than 20 is denoted as A) | B (a compound having 3 or more and less than 10 is denoted as B)
13 | CCO[C@@H]1C[C@H]2C(=O)NC3(CCCC3)C(=O)N(C)[C@@H](C3CCCC3)C(=O)N(C)[C@H](C(=O)N(C)C)CC(=O)N(C)[C@@H](CC)C(=O)N[C@@H]([C@@H](C)CC)C(=O)N(C)CC(=O)N(C)[C@H]3C/C=C\CCN(C3=O)[C@@H](Cc3ccc(C(F)(F)F)cc3)C(=O)N(C)CC(=O)N[C@@H](CCc3cc(C)c(Cl)c(C)c3)C(=O)N2C1 [PP1823] | A (a compound having 10 or more and less than 20 is denoted as A) | A (a compound having 10 or more and less than 20 is denoted as A)
14 | CCCN1C(=O)C[C@@H](C(=O)N(C)C)N(C)C(=O)[C@H](C2CCCC2)N(C)C(=O)C2(CCC2)NC(=O)[C@@H]2C[C@@H](OCC)CN2C(=O)[C@H](CCc2cc(F)c(C(F)(F)F)c(F)c2)NC(=O)CN(C)C(=O)[C@H](Cc2ccc(C(F)(F)F)cc2)N2CC/C=C\C[C@@H](C2=O)N(C)C(=O)CN(C)C(=O)[C@H]([C@@H](C)CC)NC(=O)[C@@H]1CC(C)C [PP1825] | A (a compound having 10 or more and less than 20 is denoted as A) | A (a compound having 10 or more and less than 20 is denoted as A)
15 | CCCN1C(=O)C[C@@H](C(=O)N(C)C)N(C)C(=O)[C@H](C2CCCC2)N(C)C(=O)C2(CCC2)NC(=O)[C@@H]2C[C@@H](OCC)CN2C(=O)[C@H](CCc2cc(F)c(C(F)(F)F)c(F)c2)NC(=O)CN(C)C(=O)[C@H](Cc2ccc(C(F)(F)F)cc2)N2CC/C=C\C[C@@H](C2=O)N(C)C(=O)CNC(=O)[C@H]([C@@H](C)CC)NC(=O)[C@@H]1CC(C)C [PP1826] | A (a compound having 10 or more and less than 20 is denoted as A) | A (a compound having 10 or more and less than 20 is denoted as A)
